Measurements reported in patent publication US6492371B2, “Use of cyclic GMP-specific phosphodiesterase inhibitors for treatment of Parkinson's Disease” (priority 2000, dated 2002).
Where a name gives a salt, the structure may show the parent alone.

What was measured:
[1] = oral, monotherapy; rapid peripheral metabolism by dopa decarboxylase and COMT; cited from earlier work
[2] = test system: effectiveness of L-dopa and dopaminergic ergot derivatives in PD; settings: therapy of PD, combination with L-dopa and lisuride; cited from earlier work
[3] = test system: anti-parkinson action of bromocriptine; settings: patients with PD, concomitant caffeine and bromocriptine; cited from earlier work
Parkinson's symptoms = experiment: Administration of a PDE5 inhibitor compound to a patient suffering from Parkinson's Disease; type: in vivo, human; settings: one patient with PD administered the PDE5 inhibitor
Text: The PDE5 inhibitor was 5-(2-ethoxy-5-(4-methyl-1-piperazinylsulphonyl)phenyl)-1-methyl-3-n-propyl-1,6-dihydro-7H-pyrazolo[4,3-d]pyrimidin-7-one, otherwise known as sildenafil citrate (Viagra®).

N[C@@H](Cc1ccc(O)c(O)c1)C(=O)O [L-dopa]
fraction of orally administered L-dopa that penetrates into brain [1]: Less than 1%

COc1ccc(C2CNC(=O)C2)cc1OC1CCCC1 (stereo not shown) [Rolipram, rolipram]
potentiation of the effect of L-dopa and lisuride [2]: failed to potentiate the effect of L-dopa and lisuride

Cn1c(=O)c2c(ncn2C)n(C)c1=O [caffeine]
potentiation of the anti-parkinson action of bromocriptine [3]: failed to potentiate the anti-parkinson action of bromocriptine

CCCc1nn(C)c2c(=O)[nH]c(-c3cc(S(=O)(=O)N4CCN(C)CC4)ccc3OCC)nc12 [sildenafil citrate, 5-(2-ethoxy-5-(4-methyl-1-piperazinylsulphonyl)phenyl)-1-methyl-3-n-propyl-1,6-dihydro-7H-pyrazolo[4,3-d]pyrimidin-7-one]
effect on Parkinson's symptoms noted by the patient (Parkinson's symptoms): an improvement in their Parkinson's symptoms
